Square brackets hold non-standard residues; d marks the D form. Peptide text beside a SMILES is read from it. * marks the point of attachment. Acetyl(1-naphthyl) = O=C(Cc1cccc2ccccc12)*; Phe(4-Cl) = N[C@@H](Cc1ccc(Cl)cc1)C(=O)O; hArg = N=C(N)NCCCC[C@H](N)C(=O)O; Nle = CCCC[C@H](N)C(=O)O; Abu = CC[C@H](N)C(=O)O; PhAc = O=C(Cc1ccccc1)*
Tests used:
[1] = system: hGH-RH(1–29)NH2 induced GH release; test: Inhibition of GH release in superfused rat pituitary system; type: cell-based; conditions: antagonist 30 nM; for Inhibition of GH release (%) 30 min: 1 nM hGH-RH(1–29)NH2 30 min later; for Inhibition of GH release (%) 60 min: 1 nM hGH-RH(1–29)NH2 60 min later; for Inhibition of GH release (%) 90 min: 1 nM hGH-RH(1–29)NH2 90 min later; for Inhibition of GH release (%) 120 min: 1 nM hGH-RH(1–29)NH2 120 min later; for Inhibition of GH release (%) 0 min: 1 nM hGH-RH(1–29)NH2 at 0 min
Protocol: Superfused Rat Pituitary System.
The analogs were tested in vitro in a test described earlier (S. Vigh and A. V. Schally, Peptides 5:241–347, 1984) with modification (Z. Rekasi and A. V. Schally, P.N.A.S. 90:2146–2149, 1993).
Briefly, the cells are preincubated with peptides for 9 minutes (3 mL) at various concentrations. Immediately after the incubation, 1 nM hGH-RH(1–29)NH2 is administered for 3 minutes (1 mL) [0 minute response]. To check the duration of the antagonistic effect of the analogue, 1 nM hGH-RH(1–29)NH2 is applied 30, 60, 90, and 120 minutes later for 3 minutes [30, 60, 90, 120 min responses]. Net integral values of the GH responses are evaluated. GH responses are compared to and expressed as percent of the original GH response induced by 1 nM GH-RH(1–29)NH2. The effect of the new antagonists are compared to that of [Ac-Tyr^1,D-Arg^2]hGH-RH(1–29)NH2, the “Standard antagonist”.
Growth Hormone Radio-immunoassay.
Rat GH levels in aliquots of undiluted and diluted superfusion samples were measured by double-antibody radioimmunoassay using materials supplied by the National Hormone and Pituitary Program, Baltimore, Md. The results of RIA were analyzed with a computer program developed in our institute (V. Csernus and A. V. Schally, in Neuroendocrine Research Methods, Harwood Academic (Greenstein, B. D. ed., London, pp. 71–109, 1991), hereby incorporated by reference. Inter-assay variation was less than 15% and intra-assay variation was less than 10%.

[2] = target: T1, rat pituitary GH-RH receptors (Rattus norvegicus, UniProt Q02644); test: GH-RH radioreceptor binding assay, rat anterior pituitary membrane homogenates; conditions: for Ki: competition with [His1,125I-Tyr10,Nle27]hGH-RH(1–32)NH2; for R.A. (relative affinity compared to Standard antagonist): ratio of Ki values
T1 construct: from tissue; host or cells: anterior pituitary of male Sprague-Dawley rats, crude membrane homogenates
T1 sequence (Q02644 23-464): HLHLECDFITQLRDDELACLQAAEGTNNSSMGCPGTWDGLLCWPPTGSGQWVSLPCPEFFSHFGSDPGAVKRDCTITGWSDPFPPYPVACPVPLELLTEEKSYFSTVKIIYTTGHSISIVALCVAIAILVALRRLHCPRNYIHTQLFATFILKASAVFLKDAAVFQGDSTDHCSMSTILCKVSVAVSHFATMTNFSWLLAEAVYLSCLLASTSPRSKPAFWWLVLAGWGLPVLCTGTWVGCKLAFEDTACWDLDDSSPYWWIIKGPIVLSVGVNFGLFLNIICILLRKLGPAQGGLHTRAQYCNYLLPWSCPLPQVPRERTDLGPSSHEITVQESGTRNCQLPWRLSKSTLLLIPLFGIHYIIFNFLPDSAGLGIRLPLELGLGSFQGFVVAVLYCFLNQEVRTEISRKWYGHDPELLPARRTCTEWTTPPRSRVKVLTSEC
Protocol: GH-RH Binding Assay. A sensitive radioreceptor binding assay was developed to determine the binding characteristics of the antagonists of GH-RH (G. Halmos, A. V. Schally et al., Receptor 3, 87–97, 1993), hereby incorporated by reference. The assay is based on binding of labelled [His^1,Nle^27]hGH-RH(1–32)NH2 to rat anterior pituitary membrane homogenates. Iodinated derivatives of [His^1,Nle^27]hGH-RH(1–32)NH2 are prepared by the chloramine-T method (F. C. Greenwood et al., Biochemistry 89:114–123, 1963), hereby incorporated by reference. Pituitaries from male Sprague-Dawley rats (250–300 g) are used to prepare crude membranes. For saturation binding analyses, membrane homogenates are incubated with at least 6 concentrations of [His^1,^125I-Tyr^10,Nle^27]hGH-RH(1–32) NH2, ranging from 0.005 to 0.35 nM in the presence or absence of excess unlabelled peptide (1 μM).
The pellet is counted for radioactivity in a γ-counter. The affinities of the antagonist peptides tested to rat pituitary GH-RH receptors are determined in competitive binding experiments. The final binding affinities are estimated by Ki (dissociation constant of the inhibitor-receptor complex) and are determined by the Ligand PC and McPherson computer programs of Munson and Rodbard (P. J. Munson and D. Rodbard, Anal. Biochem. 107. 220–239, 1980). Relative affinities compared to [Ac-Tyr^1,D-Arg^2]hGH-RH(1–29)NH2, the Standard antagonist, are calculated as the […].

[3] = system: GH release stimulated by hGH-RH(1–29)NH2; test: In vivo inhibition of serum GH response in rats; set-up: species or system rat
Protocol: GH-RH antagonistic effect of the analogs was tested on young male Sprague-Dawley rats (200–250 g). In each experiment, 5 groups of 7 animals each were used. The compounds (80 μg/kg) and GH-RH(1–29)NH2 (3 μg/kg) were dissolved in 5.5% mannitol and given intravenously to the jugular vein of the rats under Nembutal anesthesia. The time elapsed between the administrations of the antagonist and GH-RH varied between groups, according to the following schedule. The first group of animals received GH-RH injection 5 min after the administration of the antagonist; for the second, third and fourth group of animals, the time interval elapsed between the injection of the antagonist and that of GH-RH was 15, 30, and 60 min, respectively. The control group was first injected with the solvent alone instead of the antagonist, followed by a GH-RH injection 5 min later.
0.4 mL blood samples were taken for GH RIA before the administration of the antagonist (“blood0”), and 5 min after the injection of GH-RH (“blood1”). The GH response in each group was calculated as rGH=(GHblood1/GHblood0), mean±S.E.M. of the individual differences. Relative inhibition of GH response (%) in each group treated was calculated as […].

Compound | Inhibition of GH release (%) 30 min [1] [%] | Inhibition of GH release (%) 60 min [1] [%] | Inhibition of GH release (%) 90 min [1] [%] | Inhibition of GH release (%) 120 min [1] [%] | Inhibition of GH release (%) 0 min [1] [%] | Ki [2] [nM] | R.A. (relative affinity compared to Standard antagonist) [2] | Inhibition of the GH release stimulated by hGH-RH(1–29)NH2 (in words) ([3]; 80 μg/kg i.v., rats) | Relative inhibition % of GH response ([3]; antagonist 80 μg/kg i.v. 5 min before GH-RH) [%] | Relative inhibition % of GH response ([3]; antagonist 80 μg/kg i.v. 15 min before GH-RH) [%] | GH response mean ± S.E.M. ([3]; antagonist 80 μg/kg i.v. 15 min before GH-RH 3 μg/kg) | Relative inhibition % of GH response ([3]; antagonist 80 μg/kg i.v. 30 min before GH-RH) [%] | GH response mean ± S.E.M. ([3]; antagonist 80 μg/kg i.v. 30 min before GH-RH 3 μg/kg) | Relative inhibition % of GH response ([3]; antagonist 80 μg/kg i.v. 60 min before GH-RH) [%] | GH response mean ± S.E.M. ([3]; antagonist 80 μg/kg i.v. 60 min before GH-RH 3 μg/kg) | GH response mean ± S.E.M. ([3]; rGH=GHblood1/GHblood0, antagonist 80 μg/kg i.v. 5 min before GH-RH 3 μg/kg)
[PhAc^0, D-Arg^2, Phe(pCl)^6, Tyr(Me)^10, Abu^15, D-Arg^27, Arg^28, D-Arg^29]hGH-RH(1–29)NH2 [Peptide 19] | 47 | 59 | 23 | 39 | 58 | – | – | – | – | – | – | – | – | – | – | –
CCCC[C@H](NC(=O)[C@@H](NC(=O)[C@H](CC(=O)O)NC(=O)[C@H](CCC(N)=O)NC(=O)[C@H](CC(C)C)NC(=O)[C@H](CC(C)C)NC(=O)[C@H](CCCCN)NC(=O)[C@H](CCCNC(=N)N)NC(=O)[C@H](C)NC(=O)[C@H](CO)NC(=O)[C@H](CC(C)C)NC(=O)[C@H](CCC(N)=O)NC(=O)[C@H](CC)NC(=O)[C@H](CC(C)C)NC(=O)[C@@H](NC(=O)[C@H](CCCCN)NC(=O)[C@H](CCCNC(=N)N)NC(=O)[C@H](Cc1ccc(O)cc1)NC(=O)[C@H](CCCNC(=N)N)NC(=O)[C@H](CC(N)=O)NC(=O)[C@@H](NC(=O)[C@H](Cc1ccc(Cl)cc1)NC(=O)[C@@H](NC(=O)[C@H](C)NC(=O)[C@H](CC(=O)O)NC(=O)[C@@H](CCCNC(=N)N)NC(=O)[C@H](Cc1ccc(O)cc1)NC(=O)Cc1cccc2ccccc12)[C@@H](C)CC)[C@@H](C)O)C(C)C)[C@@H](C)CC)C(=O)N[C@H](CCCNC(=N)N)C(=O)N[C@@H](CCCCNC(=N)N)C(N)=O [Peptide 5, [Nac^0, D-Arg^2, Phe(pCl)^6, Arg^9, Abu^15, Nle^27, D-Arg^28, Har^29]hGH-RH(1–29)NH2] ({Acetyl(1-naphthyl)}-Y[dR]DAI[Phe(4-Cl)]TNRYRKVL[Abu]QLSARKLLQDI[Nle][dR][hArg]-NH2) | 77 | 59 | 58 | 50 | 79 | 0.036 | 82 | – | – | – | – | – | – | – | – | –
CCCC[C@H](NC(=O)[C@@H](NC(=O)[C@H](CC(=O)O)NC(=O)[C@H](CCC(N)=O)NC(=O)[C@H](CC(C)C)NC(=O)[C@H](CC(C)C)NC(=O)[C@H](CCCCN)NC(=O)[C@H](CCCNC(=N)N)NC(=O)[C@H](C)NC(=O)[C@H](CO)NC(=O)[C@H](CC(C)C)NC(=O)[C@H](CCCNC(=N)N)NC(=O)[C@H](CC)NC(=O)[C@H](CC(C)C)NC(=O)[C@@H](NC(=O)[C@H](CCCCN)NC(=O)[C@H](CCCNC(=N)N)NC(=O)[C@H](Cc1ccc(O)cc1)NC(=O)[C@H](CO)NC(=O)[C@H](CC(N)=O)NC(=O)[C@@H](NC(=O)[C@H](Cc1ccc(Cl)cc1)NC(=O)[C@@H](NC(=O)[C@H](C)NC(=O)[C@H](CC(=O)O)NC(=O)[C@@H](CCCNC(=N)N)NC(=O)[C@H](Cc1ccc(O)cc1)NC(=O)Cc1ccccc1)[C@@H](C)CC)[C@@H](C)O)C(C)C)[C@@H](C)CC)C(=O)N[C@@H](CO)C(=O)N[C@H](CCCNC(=N)N)C(N)=O [Peptide 10, [PhAc^0, D-Arg^2, Phe(pCl)^6, Abu^15, Arg^16, Nle^27, D-Arg^29]hGH-RH(1–29)NH2] (PhAc-Y[dR]DAI[Phe(4-Cl)]TNSYRKVL[Abu]RLSARKLLQDI[Nle]S[dR]-NH2) | 69 | 46 | 24 | 22 | 75 | 0.107 | 27 | – | – | – | – | – | – | – | – | –
[Nac^0, His^1, D-Arg^2, Phe(pCl)^6, Arg^9, Abu^15, Nle^27, D-Arg^28, Har^29]hGH-RH(1–29)NH2 [Peptide 8] | 100 | 98 | 97 | 90 | 100 | – | – | strong and long-lasting inhibition | 74 | 46 | 3.6 ± 0.4 | 8 | 5.5 ± 0.6 | 1 | 5.8 ± 0.7 | 2.3 ± 0.3
[PhAc^0, D-Arg^2, Phe(pCl)^6, Arg^9, Tyr(Me)^10, Abu^15, Nle^27, D-Arg^28, Har^29]hGH-RH(1–29)NH2 [Peptide 6] | 93 | 97 | 95 | 90 | 93 | – | – | – | – | – | – | – | – | – | – | –
[PhAc^0, His^1, D-Arg^2, Phe(pCl)^6, Arg^9, Abu^15, Nle^27, D-Arg^28, Har^29]hGH-RH(1–29)NH2 [Peptide 7] | 92 | 82 | 77 | 65 | 97 | – | – | – | – | – | – | – | – | – | – | –
